Assay results as given in PubChem BioAssay (NCI).
Several values for one entry are separate records, joined by “and”; a condition that tells them apart may be missing. Equal values may be shown once.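 Briefly, cells in 96-well plates were exposed to five compound concentrations for 48 h, and endpoints were estimated by linear interpolation. GI50 marks 50% less growth. TGI is the concentration that stops growth completely.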

Key:
Test in all cases: inhibition of tumour cell growth, NCI panel, 48 h
NCI-H522 lung = test system: NCI-H522 lung
UO-31 renal = test system: UO-31 renal
NCI-H460 lung = test system: NCI-H460 lung
ACHN renal = test system: ACHN renal
OVCAR-4 ovarian = test system: OVCAR-4 ovarian
A549 NSCLC = test system: A549 NSCLC
U251 CNS = test system: U251 CNS
HCT-15 colon = test system: HCT-15 colon
SF-295 CNS = test system: SF-295 CNS
CAKI-1 renal = test system: CAKI-1 renal
LOX IMVI melanoma = test system: LOX IMVI melanoma

Compound	TGI (NCI-H522 lung)	TGI (UO-31 renal)	TGI (NCI-H460 lung)	TGI (ACHN renal) [µM]	TGI (OVCAR-4 ovarian) [µM]	TGI (A549 NSCLC) [µM]	TGI (U251 CNS)	TGI (HCT-15 colon)	TGI (SF-295 CNS)	TGI (CAKI-1 renal)	TGI (LOX IMVI melanoma)	GI50 (NCI-H522 lung)	GI50 (NCI-H460 lung)	GI50 (ACHN renal)	GI50 (OVCAR-4 ovarian)	GI50 (HCT-15 colon)	GI50 (CAKI-1 renal)	GI50 (LOX IMVI melanoma)
COc1ccc(/C=C2/C(=O)C(c3ccccc3)N(c3ccccc3)C2=O)cc1OC (stereo unspecified)	> 10 µM	> 10 µM	> 10 µM	> 10	> 10	> 10	> 10 µM	> 10 µM	> 10 µM	> 10 µM	> 10 µM	–	–	–	–	–	–	–
Cc1csc(CP(=O)(OC(C)C)OC(C)C)n1	> 100 µM	> 100 µM	> 100 µM	> 100	> 100	> 100	> 100 µM	> 100 µM	> 100 µM	> 100 µM	> 100 µM	–	–	–	–	–	–	–
O=CC1C(=O)Nc2nc3ccccc3n2C1c1ccccc1 (stereo unspecified)	26.3 µM	27.4 µM	82.8 µM	42.7	80.3	95.4	29.1 µM	37 µM	43.8 µM	48.5 µM	23.1 µM	–	–	–	–	–	–	–
c1ccc2c[n+](Cc3ccnc4ccccc34)ccc2c1	> 100 µM	> 100 µM	> 100 µM	> 100	> 100	> 100	> 100 µM	> 100 µM	> 100 µM	> 100 µM	> 100 µM	–	–	–	–	–	–	–
Cc1c(OCc2cccc3ccccc23)ccc2c(=O)cc(S)oc12	89.4 µM	> 100 µM	> 100 µM	> 100	> 100	> 100	> 100 µM	> 100 µM	88.7 µM	> 100 µM	47.5 µM	–	–	–	–	–	–	–
Oc1ccccc1/C=N/N1C(=S)N(c2ccccc2)C(=Nc2ccccc2)C1=Nc1ccccc1	12.6 µM	33.1 µM	32.4 µM	17.5	15.2	37.7	14.2 µM	> 100 µM	23.2 µM	29.6 µM	36.2 µM	–	–	–	–	–	–	–
O=c1oc2ccc([N+](=O)[O-])cc2cc1-c1csc(-c2ccccc2)n1	> 100 µM	> 100 µM	> 100 µM	> 100	> 100	> 100	> 100 µM	> 100 µM	> 100 µM	> 100 µM	> 100 µM	–	–	–	–	–	–	–
CC1(C)CC(=O)C(/C=N/c2nc(-c3cccc([N+](=O)[O-])c3)cs2)=C(O)C1	23.7 µM	74.9 µM	27.8 µM	33.8	> 100	> 100	46.4 µM	23.8 µM	> 100 µM	23.4 µM	27.2 µM	–	–	–	–	–	–	–
COc1ccc2oc(=O)c(-c3nc4ccccc4s3)cc2c1	> 100 µM	> 41.6 µM	> 100 µM	12.7	53.6	> 41.9	> 49.6 µM	> 100 µM	> 57.3 µM	> 51.8 µM	49.5 µM	–	–	–	–	–	–	–
CC1(C)C/C=C\CCC(O)C(O)CCC(C)(C)C1=O (stereo unspecified)	> 100 µM	> 100 µM	> 100 µM	> 100	> 100	> 100	> 100 µM	> 100 µM	> 100 µM	> 100 µM	> 100 µM	–	–	–	–	–	–	–
CN=C(NC#N)NCc1ccccc1	> 100 µM	> 100 µM	> 100 µM	> 100	> 100	> 100	> 100 µM	> 100 µM	> 100 µM	> 100 µM	> 100 µM	–	–	–	–	–	–	–
COc1ccc(C2=Nn3c(C)nnc3S/C2=C\c2ccc(-c3ccc([N+](=O)[O-])cc3)o2)cc1	23.8 µM	29.8 µM	39.5 µM	25.3	> 100	66.7	45.8 µM	27.7 µM	> 100 µM	29.1 µM	30.3 µM	–	–	–	–	–	–	–
O=c1[nH]nc(-c2ccccc2)c2[nH]c3c(c12)CCCc1ccccc1-3	27.1 µM	34.7 µM	60 µM	38.9	33.6	25.6	28 µM	10.4 µM	57.5 µM	> 100 µM	33.7 µM	–	–	–	–	–	–	–
O=[N+]([O-])C(=C(\Cl)NCCO)/C(Cl)=C(/Cl)Br	2.88 µM	10.6 µM	10.8 µM	8.9	3.01	21.1	6.27 µM	2.78 µM	24.9 µM	1.85 µM	2.19 µM	–	–	–	–	–	–	–
COC(=O)CC(c1ccccc1)C(C#N)(OP1(=O)OC(c2ccccc2)C(C)N1C)c1ccccc1 (stereo unspecified)	> 100 µM	> 100 µM	> 100 µM	> 100	> 100	> 100	> 100 µM	> 100 µM	> 100 µM	> 100 µM	> 100 µM	–	–	–	–	–	–	–
O=C1CN2CCN(CC2)CC(=O)Nc2ccc(cc2)S(=O)(=O)c2ccc(cc2)NC(=O)CN2CCN(CC2)CC(=O)Nc2ccc(cc2)S(=O)(=O)c2ccc(cc2)N1	22.1 µM	> 100 µM	38.4 µM	> 100	> 100	> 100	> 94.3 µM	30.7 µM	> 100 µM	> 100 µM	> 100 µM	–	–	–	–	–	–	–
O=C1C=C(NCCc2ccc(O)cc2)C(=O)C=C1NCCc1ccc(O)cc1	> 100 µM	> 100 µM	> 100 µM	> 100	> 100	> 100	92.5 µM	> 100 µM	> 100 µM	> 100 µM	> 100 µM	–	–	–	–	–	–	–
COc1ccc([C@H]2C=C(c3cc(F)c(Cl)cc3Cl)N=c3s/c(=C\c4ccc(-c5ccc(Cl)cc5Cl)o4)c(=O)n32)cc1	> 100 µM	> 100 µM	> 100 µM	> 100	> 100	> 100	> 100 µM	> 100 µM	> 100 µM	> 100 µM	> 100 µM	–	–	–	–	–	–	–
FC(F)(F)c1ccc(N=NN2CCCC2)cc1	> 100 µM	> 100 µM	> 100 µM	> 100	> 100	> 100	> 100 µM	> 100 µM	> 100 µM	> 100 µM	> 100 µM	–	–	–	–	–	–	–
COc1ccc(/C=C/C(=O)N[C@@H]2C(=O)N3[C@@H]2SC(C)(C)[C@@H]3C(=O)O)cc1OC	> 100 µM	> 100 µM	> 100 µM	> 100	> 100	> 100	> 100 µM	> 100 µM	> 100 µM	> 100 µM	> 100 µM	–	–	–	–	–	–	–
CCCCCC(=O)OC[n+]1ccc(-c2c(COC(=O)NC(C)C)c(COC(=O)NC(C)C)c3n2CCC3)cc1	> 100 µM	> 100 µM	> 100 µM	> 100	> 100	> 100	> 100 µM	> 100 µM	> 100 µM	> 100 µM	> 100 µM	–	–	–	–	–	–	–
CN1CCN2CCN(C)CCN(CC1)CC2	> 100 µM	> 100 µM	> 100 µM	> 100	> 100	> 100	> 100 µM	> 100 µM	> 100 µM	> 100 µM	> 100 µM	–	–	–	–	–	–	–
O=C(O)COc1cccc2ccccc(=O)c12	> 100 µM	> 100 µM	> 100 µM	> 100	> 100	> 100	> 100 µM	> 100 µM	> 100 µM	> 100 µM	> 100 µM	–	–	–	–	–	–	–
C[C@H](OC(=O)/C=C/c1ccc(O)c(O)c1)[C@H](C)OC(=O)/C=C/c1ccc(O)c(O)c1	35.1 µM	21.9 µM	> 100 µM	30.5	> 100	> 100	> 100 µM	25.9 µM	19.8 µM	> 100 µM	22.6 µM	–	–	–	–	–	–	–
CCN(CC)CCCNc1c2cc(OC)ccc2nc2cccc([N+](=O)[O-])c12	0.0284 µM	0.174 µM	0.0596 µM	0.306	0.0779	0.507	0.432 µM	0.314 µM	0.796 µM	0.673 µM	0.196 µM	–	–	–	–	–	–	–
Cc1nc2ccccc2n1Cc1ccc(NC(=S)NC2CCCCC2)cc1	> 100 µM	> 100 µM	> 100 µM	44.4	> 100	> 100	> 100 µM	> 100 µM	> 88.3 µM	> 100 µM	> 100 µM	–	–	–	–	–	–	–
CC(=O)Nc1ccc2cc3c(nc2n1)c1cccnc1n3S(=O)(=O)c1ccccc1	> 100 µM	> 100 µM	> 100 µM	> 100	> 100	> 100	> 100 µM	> 100 µM	> 100 µM	> 100 µM	> 100 µM	–	–	–	–	–	–	–
COC(=O)/C=C/c1cc(OC)c2c(c1)C(C(=O)OC)C(c1ccc(O)c(OC)c1)O2 (stereo unspecified)	> 27.5 µM and 25.5 µM and 8.16 µM	> 43.7 µM and 45.1 µM and 77.2 µM	> 100 µM and > 47.9 µM and 27.8 µM	> 100	> 100	> 100	> 45 µM and > 54.2 µM and 48.3 µM	> 100 µM and > 53.7 µM and 56.6 µM	11.8 µM and 12.6 µM and 10 µM	14.3 µM and 11.9 µM and > 74 µM	> 100 µM and 22.3 µM and 25.3 µM	3.96 µM and 3.17 µM and 1.92 µM	13.9 µM and 7.71 µM and 5.24 µM	> 26.2 µM and 15.9 µM and 7.59 µM	7.9 µM and 7.77 µM and 18 µM	2.74 µM and 1.52 µM and 0.629 µM	2.63 µM and 2.04 µM and 12.2 µM	7.16 µM and 4.36 µM and 1.04 µM
NC(=O)NC(=O)c1cccc(C(=O)NC(N)=O)n1	> 100 µM	> 100 µM	> 100 µM	> 100	> 100	> 100	> 100 µM	> 100 µM	> 100 µM	> 100 µM	> 100 µM	–	–	–	–	–	–	–
